Among the data in US20190030009A1, “COMPOUNDS AND COMPOSITIONS FOR THE TREATMENT OF CRYPTOSPORIDIOSIS” (Novartis AG, priority 2016, published 2019) are CC50 and IC50 values, retold here.

Data set [1] can be described thus: Cytotoxicity against HepG2. The data set is classed as cell-based. Conditions: human, HepG2 cells (ATCC HB-8065), 5 days exposure. In outline:
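Cells seeded at 10^5 per well, held 24 h at 37 °C, then exposed to two-fold serial dilutions of compound for 5 days. Viability read with Cell Proliferation Kit II (XTT); values reported as CC50.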

For data set [2], the target named is C. parvum PI(4)K (Cryptosporidium parvum, UniProt Q5CVD3). Kind of data set: CpPI(4)K enzymatic assay (Transcreener ADP2 FP). The data set is classed as biochemical. From the text: The full-length coding sequence of C. parvum PI(4)K (cgd8_4500, 1114 amino acids) was codon-optimized for baculovirus expression, synthesized and cloned into pFastBac-HTb (Invitrogen 10584-027) in frame with the amino-terminal polyhistidine tag using the BamHI and Hindlll restriction sites. Recombinant pFastBacHTb-CpPI(4)K bacmid clones were generated by site-specific transposition in E. coli DH10Bac (Invitrogen 10361-012). The bacmid sequence was confirmed by direct DNA sequencing to confirm a lack of mutations across the whole gene. The subsequent steps for bacmid isolation, transfection and selection of the recombinant viruses were performed according to the manufacturer's protocol (Bac-to-Bac system #10359, Invitrogen).
Sequence of C. parvum PI(4)K (Q5CVD3 entry or part of it): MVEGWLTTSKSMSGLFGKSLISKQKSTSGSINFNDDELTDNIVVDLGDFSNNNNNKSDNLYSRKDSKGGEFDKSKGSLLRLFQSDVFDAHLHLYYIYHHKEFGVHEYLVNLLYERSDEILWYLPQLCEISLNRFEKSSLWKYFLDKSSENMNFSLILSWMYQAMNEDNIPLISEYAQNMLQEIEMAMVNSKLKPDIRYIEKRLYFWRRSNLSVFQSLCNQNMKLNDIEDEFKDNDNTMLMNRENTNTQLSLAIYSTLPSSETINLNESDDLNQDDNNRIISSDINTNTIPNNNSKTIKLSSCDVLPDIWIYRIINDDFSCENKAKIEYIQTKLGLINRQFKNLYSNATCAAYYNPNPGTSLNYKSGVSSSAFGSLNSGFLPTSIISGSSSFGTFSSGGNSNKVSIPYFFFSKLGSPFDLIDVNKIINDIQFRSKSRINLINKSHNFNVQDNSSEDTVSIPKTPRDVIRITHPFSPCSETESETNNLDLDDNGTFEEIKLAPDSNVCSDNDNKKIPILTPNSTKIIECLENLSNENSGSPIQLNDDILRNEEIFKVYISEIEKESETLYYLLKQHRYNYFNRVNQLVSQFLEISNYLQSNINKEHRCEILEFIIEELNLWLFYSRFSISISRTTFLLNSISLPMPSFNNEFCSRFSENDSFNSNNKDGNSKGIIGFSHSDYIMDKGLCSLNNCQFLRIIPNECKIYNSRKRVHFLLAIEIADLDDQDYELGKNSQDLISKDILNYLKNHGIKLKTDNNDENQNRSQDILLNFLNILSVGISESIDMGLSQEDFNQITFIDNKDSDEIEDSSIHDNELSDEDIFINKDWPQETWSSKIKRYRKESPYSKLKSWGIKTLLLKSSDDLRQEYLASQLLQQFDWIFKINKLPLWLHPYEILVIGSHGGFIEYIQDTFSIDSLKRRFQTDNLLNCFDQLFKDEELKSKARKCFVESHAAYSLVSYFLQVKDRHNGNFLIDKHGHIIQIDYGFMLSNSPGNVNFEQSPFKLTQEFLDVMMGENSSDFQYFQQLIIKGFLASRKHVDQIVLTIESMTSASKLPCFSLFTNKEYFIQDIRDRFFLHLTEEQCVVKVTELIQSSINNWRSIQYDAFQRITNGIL
SF9 cells, cultured in SF-900 III serum-free medium, were transfected with recombinant baculovirus at 1/200 (v/v) and incubated at 27° C. for 72 h. The pellets were collected after centrifugation and re-suspended in cell lysis buffer (20 mM Tris-HCl, pH 7.5, 300 mM NaCl, 1 mM DTT, 20 mM imidazole, 0.01% Triton X-100 and 1× complete protease inhibitor cocktail without EDTA (Roche Diagnostics 04693116001)). The cell suspension was lysed by sonication and the clarified supernatant was loaded onto a 1 ml HisTrap affinity column (GE Healthcare) pre-equilibrated with buffer A (20 mM Tris-HCl, pH 7.5, 300 mM NaCl, 1 mM DTT, 20 mM Imidazole, and 1× complete protease inhibitor cocktail without EDTA). The column was washed with buffer B (buffer A containing 45 mM imidazole) and the bound protein of interest was eluted with buffer C (buffer A with 90 mM imidazole). The fractions containing CpPI(4)K were pooled, concentrated using Amicon Ultra-15 and purified by a gel-filtration column (Hi-Load 26/60 Superdex 200, GE Healthcare) equilibrated with 20 mM Tris, pH 7.5, 300 mM NaCl, 1 mM DTT and 1× protease inhibitor cocktail without EDTA. The concentrations of the purified protein (Mw 132.39 kda) was determined by using the protein molar extinction coefficient (ε280 nm=133,810 M^−1 cm^−1). Aliquots were flash frozen in liquid nitrogen and immediately stored at −80° C.
The CpPI(4)K enzymatic assay was performed as described earlier with a some modifications (McNamara et al., 2013). Briefly, L-α-phosphatidylinositol (Avanti Polar Lipid 840046), dissolved in 3% n-octylglucoside (Roche Diagnostics 10634425001), was used as the lipid substrate for the PI(4)K activity assay. CpPI(4)K was assayed using Transcreener ADP2 FP detection kit (BellBrook 3010) in a black, solid 384-well plate (Corning 3575). The final assay volume was 10 μl and contained 3 nM of the respective CpPI(4)K construct in 10 mM Tris, pH 7.5, 1 mM DTT, 3 μM ATP, 5 mM Mn2+, 0.05% Triton X-100 and 10 μM phosphatidylinositol/octylglucoside. The enzyme reaction was performed for 50 minutes at room temperature and was stopped by adding 10 μl of detection mix containing 1× stop buffer (50 mM HEPES, pH7.5, 400 mM NaCl, 20 mM EDTA, and 0.02% Brij-35), 2 nM AMP Alexa Fluor 633 tracer, and 20 μg ml^−1 ADP antibody. Fluorescence polarization measurements were performed on the Infinite M1000 plate reader (Tecan) with λex=635 nm and λem=680 nm (20-nm bandwidth). IC50 values were calculated using Graphpad Prism software.
The inhibitory concentration (IC50) of selected compounds on the C. parvPI(4)K activity is provided in the third column [Cp_PI4K_enz IC50 (μM)] of Table II.

The CC50 is the concentration that lowers cell viability or growth by half. A high value points to lower toxicity to the cells. What is called IC50 is the concentration that gives 50% inhibition.

A value given as a limit tells only on which side of the number the result lay.

The molecule `CCN(C(=O)c1ccn2ncc(-c3ccc(C(=O)NC)cc3)c2c1)c1ccc(C#N)cn1` [Example 90] yielded a CC50 at 5 days in data set [1] of 14800 nM. This molecule registered an IC50 in data set [2] of 8 nM.

On to `CNC(=O)c1ccc(-c2cnn3ccc(C(=O)N(c4ccc(C#N)cn4)C(C)C)cc23)cc1` [Example 91], for which it took 18700 nM to reach half-maximal cytotoxicity in data set [1] (CC50 at 5 days). The IC50 in data set [2] amounted to 21 nM.

In data set [1], `CNC(=O)c1ccc(-c2cnn3ccc(C(=O)N(NC)c4ccc(C#N)cc4)cc23)cn1` [Example 92] registered a 50% cytotoxic concentration (CC50) at 5 days of 8520 nM. Further, the IC50 in data set [2] was 57 nM.

In data set [1], `CNC(=O)c1ccc(-c2cnn3ccc(N(C)C(=O)c4ccc(C#N)cn4)cc23)cc1` [Example 94] showed a CC50 at 5 days of 31200 nM. The same molecule returned an IC50 in data set [2] of 117 nM.

The molecule `CCN(C(=O)c1ccn2ncc(-c3ccc(C(=O)NC)cc3)c2c1)c1ccc(C(F)(F)F)cn1` [Example 96] came in with a cytotoxic concentration (CC50) at 5 days in data set [1] of 7140 nM. Besides, the half-maximal inhibitory concentration (IC50) in data set [2] amounted to 3 nM.

`CNC(=O)c1ccc(-c2cnn3ccc(C(=O)N(c4ccc(C#N)cn4)C4CCC4)cc23)cc1` [Example 112] showed a half-maximal cytotoxic concentration (CC50) at 5 days in data set [1] of 5020 nM. The molecule further registered an IC50 in data set [2] of 72 nM.

With `N#Cc1ccc(N(C(=O)c2ccn3ncc(-c4ccc(C(N)=O)cc4)c3c2)C2CC2)nc1` [Example 120], the CC50 at 5 days in data set [1] came out at 23700 nM. In data set [2], this molecule yielded a half-inhibitory concentration (IC50) of 40 nM.

Take `CC(C)NC(=O)c1ccc(-c2cnn3ccc(C(=O)N(c4ccc(C#N)cn4)C4CC4)cc23)cc1` [Example 121]: the midpoint of cytotoxicity in data set [1], the CC50 at 5 days, lay at 33200 nM. Further, the half-inhibitory concentration (IC50) in data set [2] was determined as 860 nM.

As to `N#Cc1ccc(N(C(=O)c2ccn3ncc(-c4ccc(C(=O)NC5CC5)cc4)c3c2)C2CC2)nc1` [Example 123], half-maximal cytotoxicity in data set [1] (CC50 at 5 days) was put at 17200 nM. This molecule also had an IC50 in data set [2] of 38 nM.

As to `CNC(=O)c1ccc(-c2cnn3ccc(C(=O)N(c4ccc(Cl)cn4)C4CC4)cc23)cc1` [Example 124], the CC50 at 5 days in data set [1] was 21000 nM. The half-maximal inhibitory concentration (IC50) in data set [2] was 14 nM.

`CCNC(=O)c1ccc(-c2cnn3ccc(C(=O)N(c4ccc(C#N)cn4)C4CC4)cc23)cc1` [Example 127] gave a CC50 at 5 days in data set [1] of 40200 nM. Further, the IC50 in data set [2] amounted to 3 nM.

`N#Cc1ccc(N(C(=O)c2ccn3ncc(-c4ccc(C(=O)NC5COC5)cc4)c3c2)C2CC2)nc1` [Example 131]: the half-maximal cytotoxic concentration (CC50) at 5 days in data set [1] was > 50000 nM. The molecule also came in with a concentration for half-maximal inhibition (IC50) in data set [2] of 329 nM.

`CNC(=O)c1ccc(-c2cnn3ccc(C(=O)N(c4ccc(C#N)c(OC)n4)C4CC4)cc23)cc1` [Example 149] gave a 50% cytotoxic concentration (CC50) at 5 days in data set [1] of 23300 nM. Also, in data set [2], 4 nM corresponded to half-maximal inhibition (IC50).

For the molecule `CCN(C(=O)c1ccn2ncc(-c3ccc(C(=O)NC)nc3)c2c1)c1ccc(C#N)cn1` [Example 150], half-maximal cytotoxicity in data set [1] (CC50 at 5 days) was put at 9820 nM. The molecule further returned an IC50 in data set [2] of 219 nM.

For `CNC(=O)c1ccc(-c2cnn3ccc(C(=O)N(c4ccc(C(F)(F)F)cn4)C(C)C)cc23)cc1` [Example 153], half-maximal cytotoxicity in data set [1] (CC50 at 5 days) was put at 20600 nM. This molecule showed an IC50 in data set [2] of 6 nM.

As for `CNC(=O)c1ccc(-c2cnn3ccc(C(=O)N(c4ccc(C(F)(F)F)cn4)C4CCC4)cc23)cc1` [Example 160], the CC50 at 5 days in data set [1] was 2090 nM. The molecule also showed an IC50 in data set [2] of 8 nM.
